Data on 1 molecule can be found in patent US6420570B1, “Psoralen compounds” (priority 1993, dated 2002).

One data set relates to cell-free virus (HIV). In kind it is cell-based. The note with it: Table 8; 16 μM; 1 minute irradiation; HIV starting titer approximately 5 logs.
For data set [1], the system named is Salmonella tester strains. The experiment in a line: Ames assay, dark mutagenicity, overall over tester strains. The procedure:
(§1) In this example the compounds of the present invention are tested for their dark mutagenicity using an Ames assay. The procedures used for the Salmonella mutagenicity test as described in detail by Maron and Ames were followed exactly. Maron, D. M. and B. N. Ames, Mutation Research 113:173 (1983). A brief description for each procedure is given here. The tester strains TA97a, TA98, TA100, TA102, TA1537 and TA1538 were obtained from Dr. Ames. TA97a, TA98, TA1537 and TA1538 are frameshift tester strains. TA100 and TA102 are base-substitution tester strains. Upon receipt each strain was cultured under a variety of conditions to confirm the genotypes specific to the strains.
(§2) The first tests done with the strains were to determine the range of spontaneous reversion for each of the strains. With each mutagenicity experiment the spontaneous reversion of the tester strains to histidine independence was measured and expressed as the number of spontaneous revertants per plate. This served as the background controls.
(§3) For all experiments, the pre-incubation procedure was used. In this procedure one vial of each tester strain was thawed and 20 μL of this culture was added to 6 mL of Oxoid Nutrient Broth #2. This solution was allowed to shake for 10 hours at 37° C. In the pre-incubation procedure, 0.1 mL of this overnight culture was added to each of the required number of sterile test tubes. To half of the tubes 0.5 mL of a 10% S-9 solution containing Aroclor 1254 induced rat liver extract (Molecular Toxicology Inc., Annapolis, MD), and MgCl2, KCl, glucose-6-phosphate, NADP, and sodium phosphate buffer (Sigma, St. Louis. Mo.) were added. To the other half of the tubes 0.5 mL of 0.2M sodium phospate buffer, pH 7.4, was used in place of the S-9 mixture (the -S9 samples) Finally 0.1 mL of the test solution containing either 0.0.1, 0.5, 1, 5, 10, 50, 100, 250, or 500 μg/mL of the test compound was added. The 0.7 mL mixture pre-incubated while shaking for 20 minutes at 37° C. After shaking, 2 mL of molten top agar supplemented with histidine and biotin were added to the 0.7 mL mixture and immediately poured onto a minimal glucose agar plate (volume of base agar was 20 ml.). The top agar was allowed 30 minutes to solidify and then the plates were inverted and incubated for 44 hours at 37° C. After incubation the number of revertant colonies on each plate were counted. […] (“n” represents the number of replicates performed for each data point.)
(§4) Maron and Ames (1983) describe the conflicting views with regard to the statistical treatment of data generated from the test.

The next data set concerns R17. The experiment in a line: R17 bacteriophage inactivation screen, varying compound concentration. The format is cell-based. To be noted: for R17 log kill 16 uM / R17 log kill 32 uM: starting titer approx. 7.1 logs. As to the method: The assay used to predict pathogen inactivation efficiency and to determine nucleic acid binding of the photoreactive binding compounds of the present invention was that in which a bacteriophage, R17, in solution with the desired substrate was irradiated. The ability of the phage to subsequently infect bacteria and inhibit their growth was measured. The bacteriophage was selected for its relatively accessible nucleic acid such that the culture growth inhibition would accurately reflect nucleic acid damage by the test compounds. The bacteriophage assay for nucleic acid binding to test compounds offers a safe and inexpensive procedure to identify compounds likely to display efficient pathogen inactivation. […] An aliquot (0.5 mL) was transferred to a 1.5 mL, snap-top polyethylene tube. An aliquot (0.004-0.040 mL) of the test compound stock solution prepared in water, ethanol or dimethylsulfoxide at 0.80-8.0 mM was added to the tube. Compounds were tested at concentrations between 4 μM and 320 μM. (AMT is commercially available from HRI, Inc., Concord, Calif.; 8-MOP is commercially available from Sigma, St. Louis, Mo.). The tubes were placed in a light device as described in EXAMPLE 1 and irradiated for between 1 and 10 minutes. […] To make the dilutions, a 0.100 mL aliquot of the irradiated solution of phage and test compound was added to the first dilution tube of 0.4 mL of media then 0.020 mL of this solution was added to the second tube of 0.5 mL medium (1:25). The second solution was then diluted serially (1:25) into the remaining tubes. […] After the top agar hardened, the plates were incubated at 37° C. overnight. The plaque forming units were then counted the following morning and the titer of the phage remaining after phototreatment was calculated based on the dilution factors. The following controls were run: the “phage only” in which phage was not treated with test compound and not irradiated (listed as “starting titer” in the tables below); the “UV only” in which the phage was irradiated in the absence of test compound; and the “dark” control in which the phage/test compound solution was not irradiated before it was diluted and plated.

The test system of data set [2] is Duck Hepatitis B Virus (DHBV). The experiment in a line: Inactivation of Duck Hepatitis B Virus in platelet concentrate, PCR amplification read-out. To be noted: 5 J/CM^2 UVA, platelet concentrate. As to the method:
This example describes the protocol for inactivation of another virus, Duck Hepatitis B Virus (DHBV), using compounds of the present invention. DHBV in duck yolk was added to platelet concentrate (PC) to a final concentration of 2×10^7 particles per mL and mixed by gentle rocking for ≧15 min. […] Samples, including controls without added psoralen, were irradiated with 5 J/CM^2 UVA, with mixing at 1 J/cm^2 increments. After irradiation, leukocytes and platelets were separated from virus by centrifugation. […] Samples were extracted with phenolchloroform and chloroform, followed by ethanol precipitation. […] PCR amplicons were generated using primers pairs DCD03/DCD05 (127 bp), DCD03/DCD06 (327 bp) and DCD03/DCD07 (1072 bp). PCR was performed in a standard PCR buffer containing 0.2 mM each deoxyribonucleoside 5′-triphosphates (dATP, dGTP, dCTP, and dTTP), 0.5 […], and 0.5 units Taq polymerase per […]. 30 cycles of amplification were performed with the following thermal profile: 95° C. 30 sec, 60° C. 30 sec, 72° C. 1 min. The amplification was followed by a 7 min incubation at 72° C. to yield full length products. [[…]-^32P] dCTP was added at an amount of […] in order to detect and quantify the resulting products. Products were separated by electrophoresis on denaturing polyacrylamide slab gels and counted. The absence of signal in a given reaction was taken to indicate effective inactivation of DHBV.

For a further data set, the system named is TA1538. The experiment in a line: Ames assay, dark mutagenicity, strain TA1538. The procedure: as §1, §2, §3, §4
The subject of a further data set is TA1537. The experiment in a line: Ames assay, dark mutagenicity, strain TA1537. The procedure: as §1, §2, §3, §4
The next data set concerns DNA. The note with it: photoactivated binding; NCI Monograph 66:21 (1984); cited from earlier work.

Procedure for cell-free virus (HIV): Pathogen inactivation efficiency of several compounds of the present invention was evaluated by examining the ability of the compounds to inactivate cell-free virus (HIV). Inactivation of cell-free HIV was performed as follows.
As in the R17 assay, small aliquots of the compounds listed in TABLES 8 and 9, below, at the concentrations listed in the table, were added to stock HIV-1 to a total of 0.5 mL. The stock HIV (10^5-10^7 plaque forming units/mL) was in DMEM/15% FBS. […] Controls included HIV-1 stock only, HIV-1 plus UVA only, and HIV-1 plus the highest concentration of each psoralen tested, with no UVA. Post irradiation, all samples were stores frozen at −70° C. until assayed for infectivity by a microtiter plaque assay. Aliquots for measurement of residual HIV infectivity in the samples treated with a compound of the present invention were withdrawn and cultured.
Residual HIV infectivity was assayed using an MT-2 infectivity assay. […] The assay medium was 85% DMEM (with a high glucose concentration) containing 100 μg of streptomycin, 100 U of penicillin, 50 μg of gentamicin, and 1 μg of amphotericin B per mL, 15% FBS and 2 μg of Polybrene (Sigma Chemical Co., St. Louis, Mo.) per mL. Test and control samples from the inactivation procedure were diluted in 50% assay medium and 50% normal human pooled plasma. The samples were serially diluted directly in 96-well plates (Corning Glass Works, corning, N.Y.). The plates were mixed on an oscillatory shaker for 30 seconds and incubated at 37° C. in a 5% CO2 atmosphere for 1 to 18 hours. […] After an additional 1 hour of incubation at 37° C. in 5% CO2, 0.075 mL of assay medium containing 1.6% SeaPlaque agarose (FMC Bioproducts, Rockland, me.) and prewarmed to 38.5° C. was added to each well. The plates were kept at 37° C. for a few minutes until several plates had accumulated and then centrifuged in plate carriers at 600×g for 20 minutes in a centrifuge precooled to 10° C. In the centrifuge, cell monolayers formed prior to gelling of the agarose layer. The plates were incubated for 5 days at 37° C. in 5% CO2 and stained by the addition of 0.05 mL of 50 μg/mL propidium iodide (Sigma Chemical Co.) in phosphate-buffered saline (pH 7.4) to each well. After 24 to 48 hours, the red fluorescence-stained microplaques were visualized by placing the plates on an 8,000 μW/cm^2 304 nm UV light box (Fotodyne, Inc., New Berlin, Wis.). The plaques were counted at a magnification of ×20 to ×25 through a stereomicroscope. “n” represents the number of runs for which the data point is an average.

On to `Cc1oc2c(C)c3oc(=O)cc(C)c3cc2c1CN` [AMT, 4′-Aminomethyl-4,5′,8-trimethylpsoralen, reference compound], for which the “HIV Log Kill 16 μM” value in the data set on cell-free virus (HIV) was 1.4 log. Further, in data set [1] (base-substitution tester strains TA100 and TA102), the base-substitution mutagenicity entry was “no significant base-substitution mutations”. In data set [1] (comparison with Compound 6), the “concentration at which mutagenicity was displayed” value is 5 μg/plate. Further, the “R17 Log Kill 8 uM” value with R17 (Table 5, 8 uM, 1 minute irradiation, starting titer approx. 7.2 logs) amounted to 2.7 log. In addition, in the data set with R17 (Table 5, 16 uM, 1 minute irradiation, starting titer approx. 7.2 logs), the “R17 Log Kill 16 uM” value came to 4.6 log. Further, in the data set with R17 (Table 5, 32 uM, 1 minute irradiation, starting titer approx. 7.2 logs), the “R17 Log Kill 32 uM” value was above 6.2 log. Moreover, the “R17 log kill 16 uM” value is listed as 4.5 log in the data set on R17 (Table 6, 16 uM, 1 minute irradiation = 1.2 J/cm^2) and above 6 log in the data set with R17 (Table 7, 16 uM, 1 minute irradiation). Also, the “R17 log kill 32 uM” value is given as 4.8 log in the data set with R17 (Table 6, 32 uM, 1 minute irradiation = 1.2 J/cm^2) and above 6 log with R17 (Table 7, 32 uM, 1 minute irradiation). The “PCR amplification of the 1072 bp amplicon” value in data set [2] is on record as “a signal could be detected”; in data set [2] (70 and 100 mM levels), “inhibited PCR amplification”. For the same molecule, the “dose at which frameshift mutagenicity was shown” value with TA1538 (TA1538) is 1 μg/plate; in the data set with TA1537 (TA1537) it was 5 μg/plate. Further, the “revertant colonies per plate” value in the data set on TA1538 (TA1538 +S9, 0.5 μg/plate) is 13; in the data set on TA1538 (TA1538 +S9, 1 μg/plate) it was 37; with TA1538 (TA1538 +S9, 5 μg/plate), 177; in the data set with TA1538 (TA1538 +S9, 10 μg/plate), 255; in the data set on TA1538 (TA1538 −S9, 0.5 μg/plate), 4; in the data set on TA1538 (TA1538 −S9, 1 μg/plate) it was 4. Further, the “revertant colonies per plate” value in the data set with TA1538 (TA1538 −S9, 5 μg/plate) turned out to be 13; with TA1537 (TA1537 −S9, 100 μg/plate), 2058. In addition, the “DNA base pairs per adduct (up to 1 AMT adduct per)” value in the data set with DNA is 3.5 DNA base pairs.
